We go through seven molecules from PMC12030650, “Synthesis, Antitumor Activities, and Apoptosis-Inducing Activities of Schiff’s Bases Incorporating Imidazolidine-2,4-dione Scaffold: Molecular Docking Studies and Enzymatic Inhibition Activities” (Pharmaceuticals, 2025).

In data set [1] the target is T1, EGFR (Homo sapiens, UniProt P00533).
T1 construct: purchased BPS Bioscience 40321
Further details: method as in PMID 31297023. As to conditions: read-out: kinase inhibition of EGFR IC50; cited from earlier work.

A further data set has as its system various cell lines. Details: method as in doi:10.1007/s00044-013-0597-1. The following applies: read-out: cytotoxic effect on various cell lines IC50; cited from earlier work.
In data set [2] the test system is breast cancer cell line MCF-7. Details: method as in doi:10.1016/j.rechem.2023.101118. The following applies: cited from earlier work.
Data set [3] has as its system WI-38 normal fibroblast cell line. The data set is described as follows: MTT cytotoxicity against normal human cells. The following applies: normal fibroblast WI-38; for IC50: Homo sapiens, read-out: IC50 WI-38. It is filed as cell-based. How it is done:
The evaluation was conducted using a 3-(4,5-dimethylthiazol-2-yl)-2,5-diphenyltetrazolium bromide (MTT) assay, as described by the authors of [50, 51]. The cell lines were obtained from ATCC. For comparative purposes, standard drugs, such as doxorubicin and erlotinib, were employed.

Data set [4] has as its target T1, EGFR. The data set is described as follows: In vitro luminescent EGFR tyrosine kinase assay (Kinase-Glo Max). The format is biochemical. The following applies: read-out: Kinase Inhibition IC50 EGFR. On the technique in general: Kinase-Glo measures the ATP left after a reaction by luminescence.
The target in a further data set is T2, HER2 (Homo sapiens, UniProt P04626).
T2 construct: purchased BPS Bioscience 40721
Put plainly: In vitro luminescent HER2 tyrosine kinase assay (Kinase-Glo Max). The following applies: read-out: Kinase Inhibition IC50 HER2. It is filed as biochemical. The procedure:
[…]. Erlotinib was probed as the standard drug in the EGFR inhibition assay, while lapatinib was tested as the […]. […].
EGFR and HER2 kinase inhibitory activities were determined based on the manufacturer’s guidelines (EGFR Kinase Assay Kit Catalog no. 40321 and HER2 Kinase Assay Kit Catalog no. 40721, BPS Bioscience, San Diego, CA).

Data set [5] has as its system breast adenocarcinoma (MCF-7). Put plainly: MTT cytotoxicity assay, MCF-7. The following applies: for IC50: Homo sapiens, MCF7, read-out: IC50 MCF-7; for SI (selectivity index) MCF-7: WI-38 vs MCF-7. In general terms: Tetrazolium dyes change colour on reduction, which living cells bring about.
The subject of the next data set is hepatoblastoma (HePG-2). The data set is described as follows: MTT cytotoxicity assay, HePG-2. The following applies: for IC50: Homo sapiens, HepG2, read-out: IC50 HePG-2; for SI (selectivity index) HePG-2: WI-38 vs HePG-2.
For data set [6], the system named is human colorectal carcinoma (HCT-116). The data set is described as follows: MTT cytotoxicity assay, HCT-116. The following applies: for IC50: Homo sapiens, HCT-116, read-out: IC50 HCT-116; for SI (selectivity index) HCT-116: WI-38 vs HCT-116.
Data set [7] relates to HCT-116, HePG-2, and MCF-7. The data set is described as follows: MTT cytotoxicity, summary over the examined cancer cell lines. The following applies: Homo sapiens.
For data set [8], the system named is anti-apoptotic protein MCL-1 in MCF-7. The data set is described as follows: MCL-1 expression in MCF-7 cells (ELISA). The format is cell-based, human. The procedure:
(§1) Apoptosis is regulated by intrinsic pathways such as the B-cell lymphoma-2 (BCL-2) family. […] MCL-1, one of the BCL-2 family members, is likely to have a significant role in cell death. The expression of MCL-1 and BCL-2 in MCF-7 cells treated with different concentrations was studied.
(§2) Apoptosis of the MCF-7 cancer cell line was measured using the Human MCL1eia kit (ELISA Kit) for the MCL-1 enzyme assay and the Invitrogen Zymed® Bcl-2 ELISA Kit for the BCL-2 enzyme assay. The ROBONIK P2000 ELISA READER was used for analysis.
(In general: In an ELISA, binding on a coated surface is turned into a signal by an enzyme label.)

In data set [9] the test system is anti-apoptotic protein BCL-2 in MCF-7. The data set is described as follows: BCL-2 expression in MCF-7 cells (ELISA). It is filed as cell-based, human. The procedure:
as §1, §2

The subject of the next data set is MCF-7 cell line. Put plainly: Cell cycle analysis (propidium iodide, flow cytometry). It is filed as cell-based, human. The source says:
Cell cycle analysis is used to quantify DNA content distribution via flow cytometry at various cell cycle stages (pre-G1, G1, S, and G2/M). Compound 24 was selected to analyze its effect on cell cycle progression in the MCF-7 cell line at different concentrations.
Cancer cell line MCF-7 was stained with ab139418_Propidium Iodide (DNA stain) and analyzed using a FACSCalibur flow cytometer.

Setting [10] is: read-out: average IC50 versus the examined cell lines.

By IC50 is commonly meant the concentration that inhibits the measured activity by half.

Where “and” joins values, the source holds several entries; their conditions need not be identical. Equal values may be shown once. Read-outs that look alike come from different tables or passages of the source.

T1 sequence (P00533 25-1210): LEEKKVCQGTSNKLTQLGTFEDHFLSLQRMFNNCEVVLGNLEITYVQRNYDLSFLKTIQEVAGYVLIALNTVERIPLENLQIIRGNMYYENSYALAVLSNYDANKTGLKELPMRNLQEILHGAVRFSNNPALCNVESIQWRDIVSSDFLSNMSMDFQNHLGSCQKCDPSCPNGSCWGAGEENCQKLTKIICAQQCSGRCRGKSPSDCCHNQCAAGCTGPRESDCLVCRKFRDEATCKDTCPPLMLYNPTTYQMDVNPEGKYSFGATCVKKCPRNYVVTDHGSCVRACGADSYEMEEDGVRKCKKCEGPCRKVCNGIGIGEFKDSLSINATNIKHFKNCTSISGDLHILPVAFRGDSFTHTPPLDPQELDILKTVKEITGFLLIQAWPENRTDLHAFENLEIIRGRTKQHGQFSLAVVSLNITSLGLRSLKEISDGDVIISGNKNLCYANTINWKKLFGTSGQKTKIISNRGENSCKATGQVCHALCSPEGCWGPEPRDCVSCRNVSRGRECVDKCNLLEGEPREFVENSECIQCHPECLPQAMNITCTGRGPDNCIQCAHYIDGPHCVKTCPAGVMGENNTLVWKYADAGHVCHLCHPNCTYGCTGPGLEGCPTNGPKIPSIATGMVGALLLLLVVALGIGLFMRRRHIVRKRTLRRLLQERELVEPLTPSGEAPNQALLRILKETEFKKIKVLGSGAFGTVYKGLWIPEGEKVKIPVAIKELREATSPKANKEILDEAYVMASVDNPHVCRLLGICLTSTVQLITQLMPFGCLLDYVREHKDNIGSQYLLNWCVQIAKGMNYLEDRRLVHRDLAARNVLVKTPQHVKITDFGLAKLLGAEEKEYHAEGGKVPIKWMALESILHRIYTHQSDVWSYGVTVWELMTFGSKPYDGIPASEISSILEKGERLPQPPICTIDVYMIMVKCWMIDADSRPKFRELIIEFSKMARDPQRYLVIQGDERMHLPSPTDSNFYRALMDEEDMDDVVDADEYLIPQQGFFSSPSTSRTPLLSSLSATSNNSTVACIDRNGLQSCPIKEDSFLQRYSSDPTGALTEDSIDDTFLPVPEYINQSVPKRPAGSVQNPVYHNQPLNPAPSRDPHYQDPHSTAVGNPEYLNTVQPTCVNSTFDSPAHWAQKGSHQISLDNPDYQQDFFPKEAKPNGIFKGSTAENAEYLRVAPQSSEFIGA
T2 sequence (P04626 23-1255): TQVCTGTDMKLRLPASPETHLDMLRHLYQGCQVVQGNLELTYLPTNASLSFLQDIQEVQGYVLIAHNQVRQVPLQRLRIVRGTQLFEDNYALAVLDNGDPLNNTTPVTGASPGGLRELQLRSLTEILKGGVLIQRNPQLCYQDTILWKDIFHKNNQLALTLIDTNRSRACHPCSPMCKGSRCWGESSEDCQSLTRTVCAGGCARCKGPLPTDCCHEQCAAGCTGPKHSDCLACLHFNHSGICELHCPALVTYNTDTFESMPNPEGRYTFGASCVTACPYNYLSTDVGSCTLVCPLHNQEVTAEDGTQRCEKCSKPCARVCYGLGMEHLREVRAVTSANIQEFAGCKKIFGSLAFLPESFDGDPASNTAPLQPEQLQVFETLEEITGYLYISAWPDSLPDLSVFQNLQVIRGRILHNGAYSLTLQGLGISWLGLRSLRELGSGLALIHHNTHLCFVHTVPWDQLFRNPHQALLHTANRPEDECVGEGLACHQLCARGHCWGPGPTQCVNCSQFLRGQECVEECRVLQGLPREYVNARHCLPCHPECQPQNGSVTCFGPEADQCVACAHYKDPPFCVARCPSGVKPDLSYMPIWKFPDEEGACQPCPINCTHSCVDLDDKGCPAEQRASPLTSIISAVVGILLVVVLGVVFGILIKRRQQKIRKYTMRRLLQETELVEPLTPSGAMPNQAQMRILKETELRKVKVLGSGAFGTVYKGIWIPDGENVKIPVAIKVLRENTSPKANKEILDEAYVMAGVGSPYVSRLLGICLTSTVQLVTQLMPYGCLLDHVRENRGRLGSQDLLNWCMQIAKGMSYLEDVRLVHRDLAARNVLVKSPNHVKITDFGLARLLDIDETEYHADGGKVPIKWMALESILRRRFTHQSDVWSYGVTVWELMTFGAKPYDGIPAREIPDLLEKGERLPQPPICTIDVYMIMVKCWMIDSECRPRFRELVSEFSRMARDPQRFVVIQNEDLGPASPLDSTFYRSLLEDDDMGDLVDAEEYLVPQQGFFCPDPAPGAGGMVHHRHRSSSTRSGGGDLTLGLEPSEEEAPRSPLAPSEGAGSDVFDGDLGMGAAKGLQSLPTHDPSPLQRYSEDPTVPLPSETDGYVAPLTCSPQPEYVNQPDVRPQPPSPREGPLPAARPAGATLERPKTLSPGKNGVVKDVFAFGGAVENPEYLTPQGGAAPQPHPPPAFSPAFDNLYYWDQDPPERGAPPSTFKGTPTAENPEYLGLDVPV

On to `O=C(CN1C(=O)NC(c2ccccc2)(c2ccccc2)C1=O)N/N=C/c1c[nH]c2ccccc12` [Compound 1], for which, at EGFR [1], the IC50 is 0.1 µM.

On to `O=C(CN1C(=O)NC(c2ccccc2)(c2ccccc2)C1=O)c1ccc(N2CCCCC2)cc1` [Compound 2], for which the half-inhibitory concentration (IC50) in the data set on various cell lines is 10 µM.

As to `O=C(CN1C(=O)NC(c2ccccc2)(c2ccccc2)C1=O)Nc1ccc(S(=O)(=O)Nc2ccccn2)cc1` [Compound 3], the “inhibition of the breast cancer cell line MCF-7” value in data set [2] is listed as “around 74%”.

As to `CC(=NNC(=O)CN1C(=O)NC(c2ccccc2)(c2ccccc2)C1=O)c1ccc(Cl)cc1` [Compound 10, N′-(1-(4-Chlorophenyl)ethylidene)-2-(2,5-dioxo-4,4-diphenylimidazolidin-1-yl)acetohydrazide], the IC50 was 54.2 µM in data set [3]; 0.67 ± 0.03 µM on EGFR [4]; 0.71 ± 0.02 µM at HER2; 11.2 ± 0.9 µM in data set [5]; 10.7 ± 0.9 µM with hepatoblastoma (HePG-2); 17.9 ± 1.4 µM in [6]. For the same molecule, in data set [7] (setting [10]), the IC50 stood at 13.2 µM. For the same molecule, the “IC50 WI-38” value in data set [3] is on record as “low cytotoxicity”. In addition, in data set [5], the “SI (selectivity index) MCF-7” value was 4.8 and 4.84. In addition, in the data set on hepatoblastoma (HePG-2), the “SI (selectivity index) HePG-2” value was 5.0 and 5.07. Moreover, the “SI (selectivity index) HCT-116” value in data set [6] is 3.0 and 3.02.

Take `CC(=NNC(=O)CN1C(=O)NC(c2ccccc2)(c2ccccc2)C1=O)c1ccc(OC(F)(F)F)cc1` [Compound 13, 2-(2,5-Dioxo-4,4-diphenylimidazolidin-1-yl)-N′-(1-(4-(trifluoromethoxy)phenyl)ethylidene)acetohydrazide]: the IC50 in data set [3] worked out at 45.4 µM; on EGFR [4] it was 0.61 ± 0.02 µM; on HER2 it was 0.28 ± 0.01 µM; in data set [5] it was 9.58 ± 0.8 µM; in the data set on hepatoblastoma (HePG-2), 13.9 ± 1.2 µM; in data set [6], 20.1 ± 1.7 µM. The concentration for half-maximal inhibition (IC50) in data set [7] (setting [10]) came to 14.5 µM. In addition, the “IC50 WI-38” value in data set [3] was “low cytotoxicity”. Also, the “SI (selectivity index) MCF-7” value in [5] was 4.7 and 4.73. In addition, the “SI (selectivity index) HePG-2” value in the data set on hepatoblastoma (HePG-2) was 3.2 and 3.25. Besides, the “SI (selectivity index) HCT-116” value in [6] was 2.2 and 2.25.

Turning to `CC(=NNC(=O)CN1C(=O)NC(c2ccccc2)(c2ccccc2)C1=O)c1cccnc1` [Compound 21, 2-(2,5-Dioxo-4,4-diphenylimidazolidin-1-yl)-N′-(1-(pyridin-3-yl)ethylidene)acetohydrazide], the concentration for half-maximal inhibition (IC50) in [3] was 60.8 µM; at EGFR [4], 1.61 ± 0.07 µM; at HER2 it was 1.17 ± 0.04 µM; in [5], 8.61 ± 0.6 µM; in the data set on hepatoblastoma (HePG-2) it was 11.5 ± 1 µM; in [6] it was 19.2 ± 1.5 µM. Moreover, in data set [7] (setting [10]), the half-maximal inhibitory concentration (IC50) is 13.1 µM. Besides, the “IC50 WI-38” value in data set [3] is “low cytotoxicity”. In data set [5], the “SI (selectivity index) MCF-7” value was determined as 7.06. In the data set on hepatoblastoma (HePG-2), the “SI (selectivity index) HePG-2” value was 5.2 and 5.28. Moreover, in data set [6], the “SI (selectivity index) HCT-116” value was 3.1 and 3.15.

`CC(=NNC(=O)CN1C(=O)NC(c2ccccc2)(c2ccccc2)C1=O)c1ccc2ccccc2c1` [Compound 24, 2-(2,5-Dioxo-4,4-diphenylimidazolidin-1-yl)-N′-(1-(naphthalen-2-yl)ethylidene)acetohydrazide]: the IC50 was found to be 39.5 µM in data set [3]; 0.07 ± 0.004 µM at EGFR [4]; 0.04 ± 0.001 µM at HER2; 4.92 ± 0.3 µM in data set [5]; 9.07 ± 0.8 µM in the data set with hepatoblastoma (HePG-2); 12.8 ± 0.9 µM in data set [6]. Also, in [7] (read-out: IC50 range against the selected cell lines), the IC50 lay in the range of 4.92 to 20.1 µM. The “IC50 WI-38” value in [3] is reported as “low cytotoxicity”. For the same molecule, the MCL-1 expression level was 715.62 pg/mL in data set [8] (2 µM); 261.20 pg/mL and 261.20 ± 8.97 pg/mL in [8] (10 μM). Further, the BCL-2 expression level in data set [9] (2 µM) is 15.55 ng/mL; in data set [9] (10 μM), 8.60 ng/mL and 8.598 ± 0.29 ng/mL. Also, the “Comment (cell cycle arrest)” value with MCF-7 cell line is recorded as “cell cycle arrest appeared at the G2/M phase”. Besides, the “%G0–G1” value in the data set with MCF-7 cell line (2 µM) was found to be 52.12%; in the data set on MCF-7 cell line (10 μM), 50.61%. For the same molecule, the results for the “%G2/M” value with MCF-7 cell line (2 µM) and in the data set with MCF-7 cell line (10 μM) were 25.43% and 33.46%, respectively. In addition, the entries for the “%S” value in the data set with MCF-7 cell line (2 µM) and in the data set with MCF-7 cell line (10 μM) were 22.45% and 15.93%, respectively. In addition, the “SI (selectivity index) MCF-7” value in data set [5] is 8.0 and 8.03. In addition, the “SI (selectivity index) HePG-2” value in the data set with hepatoblastoma (HePG-2) is 4.3 and 4.35. Moreover, the “SI (selectivity index) HCT-116” value in data set [6] was 3.0 and 3.08.
